Here are results for three compounds from US20110129871A1, “CULTURE MEDIUM ENABLING STAPHYLOCOCCUS AUREUS TO BE DIFFERENTIATED FROM COAGULASE-NEGATIVE STAPHYLOCOCCI” (priority 2008, published 2011).

In one test the target is T1, PIPLC (Staphylococcus aureus, UniProt P45723).
T1 construct: endogenous in cells; host or cells: 19 Staphylococcus aureus ATCC strains (e.g. ATCC 9144, ATCC 49775) growing in culture medium
The experiment in a line: PIPLC activity of Staphylococcus aureus strains in microplates with two fluorogenic PIPLC substrates. Set-up: key to PIPLC activity: +: strains permitting the production of fluorescence at least twice that of the background noise; −: a signal emitted by the medium that is less than the background noise. The following applies: microplate, 24 hours at 37° C.; for number of strains that display PIPLC activity in the presence of the substrate: among the nineteen strains of Staphylococcus aureus ATCC tested; for PIPLC activity: substrate 0.4 g/l (4-methylumbelliferyl) or 0.2 g/l (3-chloro) in medium derived from OAA. The format is cell-based. The protocol:
19 strains of Staphylococcus aureus ATCC are tested for their PIPLC activity in microplates. The tests are performed with two different fluorogenic substrates of PIPLC: 4-methylumbelliferyl-myo-inositol-1-phosphate and 3-chloro-7-hydroxy-4-methylcoumarin myo-inositol-phosphate, added at different concentrations to the constituents of the medium derived from the OAA medium described in example 1.
The strains tested, at an initial concentration of 10^8 (CFU)/ml, are diluted in a tryptone salt broth, so as to obtain a final concentration at 10^3 CFU/ml.
10 μl of this bacterial suspension is added to 200 μl of culture medium. Each strain was incubated for 24 hours at 37° C. with each of the media in the microplate reader marketed by the company TECAN under the name GENios™.
The + signs correspond to the strains permitting the production of fluorescence at least twice that of the background noise, The − signs correspond to a signal emitted by the medium that is less than the background noise.

The next test has as its system PC-PLC (lecithinase). The following applies: strains ATCC 33592 and ATCC 700699, 10 CFU per well; 0.4 g/l substrate, pH 7.2, 37° C., 72h, versus uninoculated control medium (FIG. 1).

T1 sequence (P45723 27-312): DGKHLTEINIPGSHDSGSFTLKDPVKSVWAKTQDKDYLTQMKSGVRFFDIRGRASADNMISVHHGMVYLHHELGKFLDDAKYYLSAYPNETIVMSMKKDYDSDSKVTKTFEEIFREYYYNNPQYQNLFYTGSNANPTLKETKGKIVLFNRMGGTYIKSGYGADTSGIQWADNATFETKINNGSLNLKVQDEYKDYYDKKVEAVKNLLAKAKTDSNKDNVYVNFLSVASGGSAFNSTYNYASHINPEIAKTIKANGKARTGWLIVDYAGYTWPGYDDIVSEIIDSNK
Method for PC-PLC (lecithinase): The dynamics of the PC-PLC activity of two strains of Staphylococcus aureus ATCC 33592 and ATCC 700699 was evaluated in microplates in the presence of the medium given below. Reading of the appearance of fluorescence in each of the various wells of the microplate was then carried out in kinetic conditions.
The medium used is of the following composition, pH 7.2:
10 CFU of Staphylococcus aureus ATCC 33592 and ATCC 700699 were inoculated in the wells of the microplate in the presence of the medium described above. The microplate was then incubated at 37° C. in a TECAN reader to evaluate the PC-PLC activity of the two strains of Staphylococcus aureus in the form of the kinetics of hydrolysis of the 4MU-CP substrate, i.e. appearance of fluorescence.
Measurement of the appearance of fluorescence following hydrolysis of the 4MU-CP substrate was carried out over an incubation time of 72h for the two strains of Staphylococcus aureus tested (STA ATCC 33592 and STA ATCC 700699) versus the uninoculated control medium (baseline).

Turning to `Cc1c(Cl)c(=O)oc2cc(OP(=O)([O-])OC3C(O)C(O)C(O)C(O)C3O)ccc12.[Li+]` (centres unmarked) [3-Chloro-7-hydroxy-4-methylcoumarin myo-inositol-1-phosphate], on PIPLC, the “number of strains that display PIPLC activity in the presence of the substrate” value is given as 18. For the same compound, the PIPLC activity result at PIPLC (strain ATCC 6538), at PIPLC (strain ATCC 9144), on PIPLC (strain ATCC 12598), on PIPLC (strain ATCC 13150), on PIPLC (strain ATCC 29213) and on PIPLC (strain ATCC 33591) was “+ (strains permitting the production of fluorescence at least twice that of the background noise)” each time. The PIPLC activity entry at PIPLC (strain ATCC 33592) is reported as “+ (strains permitting the production of fluorescence at least twice that of the background noise)”; on PIPLC (strain ATCC 33593), “+ (strains permitting the production of fluorescence at least twice that of the background noise)”; at PIPLC (strain ATCC 33862), “+ (strains permitting the production of fluorescence at least twice that of the background noise)”; on PIPLC (strain ATCC 43300), “+ (strains permitting the production of fluorescence at least twice that of the background noise)”; at PIPLC (strain ATCC 43866) it was “+ (strains permitting the production of fluorescence at least twice that of the background noise)”; on PIPLC (strain ATCC 49775), “−”. In addition, the PIPLC activity result on PIPLC (strain ATCC 51153), at PIPLC (strain ATCC 51740), at PIPLC (strain ATCC 700698), on PIPLC (strain ATCC 700699), on PIPLC (strain ATCC 700788) and at PIPLC (strain ATCC 700789) was “+ (strains permitting the production of fluorescence at least twice that of the background noise)” in each case. Also, the PIPLC activity entry on PIPLC (strain CCM 6188) is “+ (strains permitting the production of fluorescence at least twice that of the background noise)”.

For `Cc1cc(=O)oc2cc(OP(=O)(O)OC3C(O)C(O)C(O)C(O)C3O)ccc12` (centres unmarked) [4-Methylumbelliferyl myo-inositol-1-phosphate], on PIPLC, the “number of strains that display PIPLC activity in the presence of the substrate” value is on record as 17. Also, the PIPLC activity entry at PIPLC (strain ATCC 6538), on PIPLC (strain ATCC 9144), on PIPLC (strain ATCC 12598), on PIPLC (strain ATCC 13150), at PIPLC (strain ATCC 29213) and at PIPLC (strain ATCC 33591) was “+ (strains permitting the production of fluorescence at least twice that of the background noise)” in each case. The PIPLC activity entry at PIPLC (strain ATCC 33592) is “+ (strains permitting the production of fluorescence at least twice that of the background noise)”; at PIPLC (strain ATCC 33593) it was “+ (strains permitting the production of fluorescence at least twice that of the background noise)”; on PIPLC (strain ATCC 33862), “+ (strains permitting the production of fluorescence at least twice that of the background noise)”; at PIPLC (strain ATCC 43300), “+ (strains permitting the production of fluorescence at least twice that of the background noise)”; at PIPLC (strain ATCC 43866) it was “+ (strains permitting the production of fluorescence at least twice that of the background noise)”; on PIPLC (strain ATCC 49775), “−”. Also, the PIPLC activity result at PIPLC (strain ATCC 51153), at PIPLC (strain ATCC 51740), on PIPLC (strain ATCC 700698), at PIPLC (strain ATCC 700699), at PIPLC (strain ATCC 700788) and on PIPLC (strain ATCC 700789) was “+ (strains permitting the production of fluorescence at least twice that of the background noise)” in each case. In addition, the PIPLC activity result at PIPLC (strain CCM 6188) is “−”.

Take `Cc1cc(=O)oc2cc(OP(=O)([O-])OCC[N+](C)(C)C)ccc12` [4MU-CP, 4-Methylumbelliferyl choline-phosphate]: in the test on PC-PLC (lecithinase), the “detection of Staphylococcus aureus by hydrolysis of the fluorogenic PC-PLC substrate (appearance of fluorescence)” value is “permits the detection and discrimination of Staphylococcus aureus”.
